Values joined by “and” are separate entries in the source; they are usually repeats but may differ in a detail not shown here. Equal entries are not always repeated.
Legend:
[1] = tested on: bone metastases from prostate cancer; experiment: Fractional uptake of a tracer dose of ^85Sr chloride by bone metastases, measured with gamma camera / external counting; format: in vivo, patient
Description: To calculate the activity (mCi or MBq) of the dose of a carrier-free salt of ^89Sr, preferably chloride, to be administered to palliate painful metastases in a patient, 1 mCi (37 MBq) of ^85Sr chloride with standard specific activity [120 μCi (4.44 MBq)/mg of strontium) is injected into the patient and radioactivity in each metastasis is measured 24 hours after injection. The fractional uptake in each metastasis (relative osteoblastic activity) is calculated by expressing the radioactivity measured in each metastasis as a percent of the administered dose. The sum of the fractional uptake in all metastases is taken as the “metastatic burden” of the patient.
Measurements of radioactivity can be guided by a recent bone scan with ^99Tc^m-MDP (methylene diphosphonate). These measurements can be made by external point counting with a collimated scintillation detector, or by using a gamma camera. […]
The gamma camera needs to be equipped with a high-energy collimator. Anterior and posterior images of the lesions are recorded for 15 minutes. […]
The count rate in each metastasis is calculated by the square root of the product of the count rates in the anterior (A) and posterior (P) images divided by e^−μd: [(cps A) ×(cps P)/(e^−μd)]. The exponential term accounts for the attenuation of the gamma photons by the patient's tissues, where μ is the attenuation coefficient for the gamma rays of ^85Sr, previously measured in a water phantom, and d is the patent thickness measured in cm from x-ray images. The attenuation coefficient needs to be experimentally estimated only once; sensitivity should be measured using an ^85Sr source in a soft-tissue phantom before each imaging session because it varies with time. […]
The sum of the fractional uptake of ^85Sr chloride by all detectable metastases (“metastatic burden”), is used to define the activity (mCi or MBq) of ^89Sr chloride needed to palliate painful metastases in a patient. […] The fractional uptake measured in these metastases was 3%, 4%, 7%, 10%, and 17% of the dose respectively, with a total “metastatic burden” of 41% (3+4+7+10+17=41) (Table II). […]

bone metastases = experiment: Theoretical (calculated) distribution of ^89Sr chloride doses in the metastases, from the ^85Sr chloride uptake; format: in vivo, patient; settings: for total amount of strontium incorporated by all metastases: 4 mCi dose
Description: The fractional uptake (%) of a standard dose ^89Sr chloride for pain palliation in bone metastasis [4 mCi (148 MBq)] with specific activity of 120 μCi (4.44 MBq)/mg of strontium) (B) is calculated from the fractional uptake (%) of 1 mCi of ^85Sr chloride at the same specific activity (A) is illustrated in Table II.
The fractional uptake (%) of a standard dose of 4.0 mCi (148 MBq) of ^89Sr chloride at the standard specific activity is calculated for each metastasis from the results obtained with ^85Sr chloride. Since the specific activity is the same for both radionuclides, the fractional uptake would be similar if the same physiological conditions are maintained. However, the activity (μCi) and the amount of strontium (mg) incorporated by the metastases would be increased by four times because the activity of the administered dose is increased from 1 mCi to 4 mCi. Theoretically, the fractional uptake of a standard dose of ^89Sr chloride by the metastatic burden would be 41.0% of the dose (1.64 mCi or 60.7 MBq), leaving in blood a remaining fraction of 59% of the dose (2.36 mCi or 87.3 MBq) available for renal excretion and for incorporation by normal bone.
The absolute amount of strontium (mg) incorporated by each lesion can be calculated by multiplying the activity of the administered dose (mCi or MBq) by the fractional uptake by a given metastasis (% of the dose), and dividing the result by the specific activity of the dose (mCi or MBq/mg of strontium):
Strontium (mg)=Activity of the dose (mCi) × fractional uptake (%)/specific activity (mCi/mg Sr)
In Table II it is also appreciated that the fractional uptake is the same for both the activity (μCi) and the absolute amount (mg) of strontium incorporated by the metastases. One mg of strontium corresponds to 3% of the element in the dose. One hundred and twenty μCi of ^89Sr correspond to […] of the activity in the dose. One mCi of strontium chloride with specific activity of 120 μCi/mg of strontium contains 8.333 mg of strontium (Table I), therefore, 4 mCi would contain 33.333 mg of the element. A fractional uptake of 41.0% corresponds to 410 μCi and 3.416 mg when using 1 mCi, and to 1.64 mCi and 13.667 mg when the dose is increased to 4 mCi (Table II). The amount of strontium (mg) taken up by the metastasis per unit time should be constant if the physiological parameters are maintained. Dose calculation may be guided by the relationship of the amount of strontium in carrier-free ^89Sr chloride ([…]) and that which is in an equal amount of its low specific activity counterpart (120 μCi/mg of Sr). The amount of strontium in 4 mCi of low specific activity ^89Sr chloride (120 μCi/mg of Sr), is 33.333 mg, while in carrier-free ^89Sr chloride (17 Ci/mg of Sr) it is reduced to 235.2 ng. The relationship between these quantities would be:
Theoretical distribution of ^89Sr chloride at different specific activities assuming the same fractional uptake (% of the dose) by the metastases. (A) ^89Sr chloride with low specific activity [120 μCi (4.44 MBq)/mg of strontium]; (B) carrier-free ^89Sr chloride [17 Ci (629 GBq)/mg of strontium] is illustrated in Table III.
If the “metastatic burden” takes up 41% of a 4mCi dose of the low specific activity ^89Sr chloride (13.664 mg of strontium) (Tables II and III), it is evident that the very small amount of strontium in the carrier-free ^89Sr chloride dose (235.2 ng) would be totally incorporated by the metastases, resulting in a fractional uptake of 100% y the metastatic burden. To correct for this effect, the data in Table IlI should be multiplied by the ratio between 100% uptake and the fractional uptake by the metastatic burden by using 89Sr chloride at the lower specific activity. In this case, the ratio is 100%/41%=2.439. […]

[2] = tested on: metastatic lesions in bone; experiment: Absorbed radiation dose estimates by direct measurements of radioactivity in bone metastases; format: in vivo; settings: after 4 mCi (148 MBq), 120 μCi/mg of strontium
Text: Absorbed radiation dose estimates for metastatic lesions in bone, obtained by direct measurements of radioactivity in bone metastases after the administration of 4 mCi (148 MBq) of ^89Sr chloride at standard specific activity (120 μCi [4.44 MBq]/mg of strontium), varied from 1.3 to 64 Gy, with a mean of 18±16 Gy. The average total absorbed dose in normal bone sites was 1.1±0.4 Gy. The metastases (target) to normal bone (non-target) dose ratio in individual samples varied from 8±4 to 40±25. If compared to absorbed radiation dose provided by external beam radiotherapy, the absorbed radiation dose delivered by ^89Sr chloride should be large enough to produce a therapeutic effect on the metastases. But absorbed radiation doses delivered by ^89Sr chloride may not be compared with those delivered by external beam radiotherapy because the different dose rates used in each methodology. External beam radiotherapy delivers very high dose rates in a very short time, while ^89Sr chloride provides very low dose rates during a long period. These differences reduce the biological effect of a given dose of ^89Sr because there is repair of sublethal damage.

painful bone metastases = settings: cited from earlier work
[3] = intravenous single injection; reduced by slow administration over at least two minutes; cited from earlier work
bone marrow = settings: repeat doses at 3-month intervals; cited from earlier work
metastases = settings: in vivo; cited from earlier work
[4] = carrier-free, 1.64 mCi dose, theoretical
[5] = standard dose 4 mCi (148 MBq), 120 μCi/mg of strontium, theoretical
[6] = standard dose 4 mCi, 120 μCi/mg of strontium, theoretical

For `[85Sr+2].[Cl-].[Cl-]` [^85Sr Chloride (120 μCi/mg Sr), ^85Sr chloride], the “Uptake (%)” value ([1]; 1 mCi dose, 120 μCi/mg Sr, 24 hours after injection, r8-r12 = metastasis 1-5, r13 = Total, one patient) was 7.0% and 10.0% and 17.0% and 41.0% and 3.0% and 4.0%, the “fractional uptake measured in these metastases” value ([1]; 1 mCi, 120 μCi/mg of strontium, five metastases of one patient with prostate cancer, values respectively) was 3 % of the dose and 4 % of the dose and 7 % of the dose and 10 % of the dose and 17 % of the dose and the “total "metastatic burden" (sum of fractional uptake in all metastases)” value ([1]; 1 mCi, 120 μCi/mg of strontium, one patient, five metastases) was 41%.

With `[89Sr+2].[Cl-].[Cl-]` [^89Sr Chloride (17 Ci/mg Sr), ^89Sr chloride] the “fractional uptake by the metastases relative to the same activity at standard specific activity” value (bone metastases; 4 mCi (148 MBq) carrier-free vs 120 μCi/mg, ratio 100%/41%) was 2.439 times, the “activity incorporated by individual metastases” value (bone metastases; carrier-free, 1.64 mCi (60.68 MBq) dose, metastasis No. 4, No. 5, No. 1, No. 2, No. 3, respectively, listed as carrier-free ^89Sr chloride) was 400 μCi and 680 μCi and 120 μCi and 160 μCi and 280 μCi and the “ratio metastases to normal bone, theoretical values” (bone metastases; carrier-free, 1.64 mCi dose, measured ratio multiplied by 2.439) was 20-98. For the same compound, the “absolute amount of strontium taken up by the metastases” value (bone metastases; [4]) was 96.422 ng, the “fractional uptake by the metastatic burden” value (bone metastases; [4]) was 100% and the “fractional uptake by the metastatic burden” value (bone metastases; carrier-free, 4 mCi dose (235.2 ng strontium), theoretical) was 100%. For the same compound, the “activity received by individual metastases” value (bone metastases; carrier-free, 4.1 mCi dose, metastasis 1-5 respectively, listed as carrier-free ^89Sr chloride) was 300 μCi and 400 μCi and 700 μCi and 1,000 μCi and 1,700 μCi and the “mean absorbed radiation dose to the metastases” value (bone metastases; carrier-free, 5.466 mCi (202.2 MBq) dose, calculated) was 60 Gy.

For `[89Sr+2].[Cl-].[Cl-]` [^89Sr Chloride (120 μCi/mg Sr), ^89Sr chloride], the “total amount of strontium incorporated by all metastases” value (“total amount of strontium incorporated” below) (bone metastases; 120 μCi/mg of strontium, theoretical) was 13.664 mg, the “total amount of strontium incorporated” value (bone metastases; 120 μCi/mg of strontium, theoretical, listed as low specific activity ^89Sr chloride) was 13.664 mg and the “total amount of strontium incorporated” value (bone metastases; 120 μCi/mg of strontium, theoretical, listed as low specific activity ^89Sr chloride (120 μCi/mg of Sr)) was 13.667 mg. For the same compound, the mean fractional uptake (bone metastases; over the five metastases of Table II) was 8.2%, the “activity taken up by the metastatic burden” value (bone metastases; [5]) was 1.64 mCi and the “fractional uptake by the metastatic burden” value (bone metastases; [5]) was 41 % of the dose. For the same compound, the “fractional uptake by the metastatic burden” value (bone metastases; standard dose 4 mCi (148 MBq), 120 μCi/mg of strontium, theoretical, listed as low specific activity ^89Sr chloride) was 41 % of the dose, the “activity remaining in blood, available for renal excretion and incorporation by normal bone” value (bone metastases; [6]) was 2.36 mCi and the “fraction remaining in blood, available for renal excretion and incorporation by normal bone” value (bone metastases; [6]) was 59 % of the dose. The “absorbed radiation dose for metastatic lesions in bone, mean” value [2] was 18±16 Gy, the “average total absorbed dose in normal bone sites” value [2] was 1.1±0.4 Gy and the “metastases (target) to normal bone (non-target) dose ratio in individual samples” value [2] was 8-40. For the same compound, the “duration of response, mean” value (painful bone metastases; after ^89Sr administration) was 6 months, the “overall effective pain palliation” value (painful bone metastases; survey in the United States in 1995, patients treated with bone-seeking radionuclides) was 81% and the “patients achieving a complete remission of pain” value (painful bone metastases; survey in the United States in 1995) was 15%. For the same compound, the “effect during the injection” value [3] was “facial flushing during the injection”, the “toxicity of additional injections” value (bone marrow) was “no major toxicity” and the “ratio of the uptake by metastases as compared to the uptake in normal bones” value (metastases) was “higher than 10 to 1”.

Source: patent publication US20020018748A1, “Method for targeted radiotherapy, pain palliation and imaging of osteoblastic skeletal tumors and composition therefore” (priority 2000, published 2002)
